Measurements published in the NIST ThermoML archive (doi:10.1016/j.fluid.2017.12.010).
Numbers after ± are expanded uncertainties.

Assay: xn = mol fraction of the nth substance listed
Details: Liquid, Vibrating tube method

CCCCCCCCCCCC [dodecane] + CCCCCCCCCC
Details	mass density [kg/m3]
303.31 K, 1000 kPa, x2 = 0.2297	739 ± 3
303.32 K, 5000 kPa, x2 = 0.2297	742 ± 3
303.32 K, 10000 kPa, x2 = 0.2297	745 ± 3
303.33 K, 20000 kPa, x2 = 0.2297	752 ± 3
303.33 K, 30000 kPa, x2 = 0.2297	759 ± 3
303.34 K, 40000 kPa, x2 = 0.2297	765 ± 3
303.35 K, 100 kPa, x2 = 0.2297	738 ± 3
303.35 K, 60000 kPa, x2 = 0.2297	775 ± 3
303.35 K, 80000 kPa, x2 = 0.2297	785 ± 3
303.35 K, 100000 kPa, x2 = 0.2297	794 ± 3
303.39 K, 100 kPa, x2 = 0.4436	734 ± 3
303.39 K, 1000 kPa, x2 = 0.4436	735 ± 3
303.39 K, 5000 kPa, x2 = 0.4436	738 ± 3
303.39 K, 10000 kPa, x2 = 0.4436	742 ± 3
303.41 K, 20000 kPa, x2 = 0.4436	749 ± 3
303.41 K, 40000 kPa, x2 = 0.4436	761 ± 3
303.41 K, 80000 kPa, x2 = 0.4436	782 ± 3
303.41 K, 99990 kPa, x2 = 0.4436	791 ± 3
303.42 K, 30000 kPa, x2 = 0.4436	755 ± 3
303.42 K, 60000 kPa, x2 = 0.4436	772 ± 3
303.43 K, 100 kPa, x2 = 0.6433	730 ± 3
303.43 K, 1000 kPa, x2 = 0.6433	731 ± 3
303.43 K, 20000 kPa, x2 = 0.6433	745 ± 3
303.43 K, 30000 kPa, x2 = 0.6433	752 ± 3
303.43 K, 40000 kPa, x2 = 0.6433	758 ± 3
303.43 K, 60000 kPa, x2 = 0.6433	769 ± 3
303.43 K, 80000 kPa, x2 = 0.6433	779 ± 3
303.43 K, 100000 kPa, x2 = 0.6433	788 ± 3
303.44 K, 5000 kPa, x2 = 0.6433	734 ± 3
303.44 K, 10000 kPa, x2 = 0.6433	738 ± 3
303.45 K, 100 kPa, x2 = 0.7841	727 ± 3
303.45 K, 10000 kPa, x2 = 0.7841	735 ± 3
303.45 K, 20000 kPa, x2 = 0.7841	742 ± 3
303.45 K, 30000 kPa, x2 = 0.7841	749 ± 3
303.45 K, 40000 kPa, x2 = 0.7841	755 ± 3
303.45 K, 60000 kPa, x2 = 0.7841	766 ± 3
303.45 K, 80000 kPa, x2 = 0.7841	776 ± 3
303.45 K, 100000 kPa, x2 = 0.7841	785 ± 3
303.46 K, 1000 kPa, x2 = 0.7841	728 ± 3
303.47 K, 5000 kPa, x2 = 0.7841	731 ± 3
312.89 K, 100 kPa, x2 = 0	736 ± 3
312.89 K, 1000 kPa, x2 = 0	737 ± 3
312.9 K, 5000 kPa, x2 = 0	740 ± 3
312.9 K, 10000 kPa, x2 = 0	744 ± 3
312.9 K, 20000 kPa, x2 = 0	751 ± 3
312.9 K, 30000 kPa, x2 = 0	757 ± 3
312.9 K, 40000 kPa, x2 = 0	763 ± 3
312.9 K, 50000 kPa, x2 = 0	769 ± 3
312.9 K, 60000 kPa, x2 = 0	774 ± 3
312.9 K, 70000 kPa, x2 = 0	780 ± 3
312.9 K, 80000 kPa, x2 = 0	784 ± 3
312.9 K, 90000 kPa, x2 = 0	789 ± 3
312.9 K, 100000 kPa, x2 = 0	793 ± 3
313.23 K, 100 kPa, x2 = 0.2297	732 ± 3
313.24 K, 1000 kPa, x2 = 0.2297	732 ± 3
313.24 K, 5000 kPa, x2 = 0.2297	736 ± 3
313.24 K, 10000 kPa, x2 = 0.2297	740 ± 3
313.24 K, 20000 kPa, x2 = 0.2297	747 ± 3
313.24 K, 30000 kPa, x2 = 0.2297	753 ± 3
313.24 K, 40000 kPa, x2 = 0.2297	760 ± 3
313.24 K, 60000 kPa, x2 = 0.2297	771 ± 3
313.25 K, 80000 kPa, x2 = 0.2297	781 ± 3
313.25 K, 100000 kPa, x2 = 0.2297	790 ± 3
313.3 K, 30000 kPa, x2 = 0.4436	750 ± 3
313.3 K, 40000 kPa, x2 = 0.4436	756 ± 3
313.3 K, 100000 kPa, x2 = 0.4436	787 ± 3
313.31 K, 100 kPa, x2 = 0.4436	728 ± 3
313.31 K, 1000 kPa, x2 = 0.4436	729 ± 3
313.31 K, 10000 kPa, x2 = 0.4436	736 ± 3
313.31 K, 20000 kPa, x2 = 0.4436	743 ± 3
313.31 K, 60000 kPa, x2 = 0.4436	767 ± 3
313.31 K, 80000 kPa, x2 = 0.4436	778 ± 3
313.32 K, 5000 kPa, x2 = 0.4436	732 ± 3
313.36 K, 100 kPa, x2 = 0.6433	724 ± 3
313.36 K, 1000 kPa, x2 = 0.6433	725 ± 3
313.36 K, 10000 kPa, x2 = 0.6433	732 ± 3
313.36 K, 20000 kPa, x2 = 0.6433	740 ± 3
313.37 K, 100 kPa, x2 = 0.7841	721 ± 3
313.37 K, 1000 kPa, x2 = 0.7841	722 ± 3
313.37 K, 5000 kPa, x2 = 0.6433	728 ± 3
313.37 K, 5000 kPa, x2 = 0.7841	725 ± 3
313.37 K, 10000 kPa, x2 = 0.7841	729 ± 3
313.37 K, 30000 kPa, x2 = 0.6433	746 ± 3
313.37 K, 40000 kPa, x2 = 0.6433	753 ± 3
313.37 K, 40000 kPa, x2 = 0.7841	750 ± 3
313.37 K, 60000 kPa, x2 = 0.7841	762 ± 3
313.37 K, 80000 kPa, x2 = 0.7841	772 ± 3
313.38 K, 20000 kPa, x2 = 0.7841	737 ± 3
313.38 K, 30000 kPa, x2 = 0.7841	744 ± 3
313.38 K, 60000 kPa, x2 = 0.6433	764 ± 3
313.38 K, 80000 kPa, x2 = 0.6433	774 ± 3
313.38 K, 100000 kPa, x2 = 0.6433	784 ± 3
313.38 K, 100000 kPa, x2 = 0.7841	781 ± 3
322.83 K, 100 kPa, x2 = 0	727 ± 3
322.83 K, 1000 kPa, x2 = 0	728 ± 3
322.83 K, 5000 kPa, x2 = 0	732 ± 3
322.83 K, 10000 kPa, x2 = 0	736 ± 3
322.83 K, 20000 kPa, x2 = 0	743 ± 3
322.83 K, 30000 kPa, x2 = 0	750 ± 3
322.83 K, 40000 kPa, x2 = 0	756 ± 3
322.83 K, 50000 kPa, x2 = 0	762 ± 3
322.83 K, 60000 kPa, x2 = 0	768 ± 3
322.83 K, 70000 kPa, x2 = 0	773 ± 3
322.83 K, 80000 kPa, x2 = 0	778 ± 3
322.83 K, 90000 kPa, x2 = 0	783 ± 3
322.83 K, 100000 kPa, x2 = 0	787 ± 3
323.08 K, 100 kPa, x2 = 0.2297	723 ± 3
323.08 K, 1000 kPa, x2 = 0.2297	724 ± 3
323.08 K, 5000 kPa, x2 = 0.2297	727 ± 3
323.08 K, 10000 kPa, x2 = 0.2297	731 ± 3
323.08 K, 20000 kPa, x2 = 0.2297	739 ± 3
323.08 K, 30000 kPa, x2 = 0.2297	746 ± 3
323.08 K, 40000 kPa, x2 = 0.2297	752 ± 3
323.09 K, 100 kPa, x2 = 0.4436	719 ± 3
323.09 K, 60000 kPa, x2 = 0.2297	764 ± 3
323.09 K, 80000 kPa, x2 = 0.2297	774 ± 3
323.09 K, 100010 kPa, x2 = 0.2297	784 ± 3
323.1 K, 1000 kPa, x2 = 0.4436	720 ± 3
323.1 K, 5000 kPa, x2 = 0.4436	724 ± 3
